“Also recorded” adds a separate entry of the source.
Key:
[1] = test system: Primary WT mouse aortic smooth muscle cells; experiment: alamarBlue cell viability assay in primary mouse aortic smooth muscle cells; assay type: cell-based; conditions: 48 hours after treatment; 10% FBS/DMEM; increasing concentrations; p<0.0001 vs vehicle (0 uM)
Description: FIG. 11. Primary WT mouse aortic smooth muscle cells cultured in 10% FBS/DMEM medium were exposed to increasing concentrations of ICG-001 or vehicle (triplicates for each concentration). Cell viability was measured 48 hours after treatment by alamarBlue Assay. Cell viability (%, relative to vehicle treated cells, which were set as 100%) is plotted against the concentration of ICG-001 (uM).
(§1) In order to test the role of Wnt/beta-catenin signaling in vascular SMC biology, beta-catenin was specifically inactivated in SMCs, using a genetic approach in the mouse. […] After midgestation, dilated arterial vessels without an evident SMC layer were observed (FIG. 7). […] It was determined that increased p53 activity in SMCs partially explains the effects of inactivating beta-catenin (FIG. 9).

[2] = test system: p53; experiment: p53 luciferase-based reporter assay in primary vascular SMCs; assay type: cell-based; conditions: control primary vascular SMCs (Adeno-GFP)
Description: FIG. 10. […] The activity of p53 was measured by a luciferase-based reporter assay.
as §1

p53 activity compared to vehicle (DMSO) ([2]; 10 uM XAV939, p<0.05)	SMILES	Cell viability (%, relative to vehicle treated cells) [1]	p53 activity ([2]; wild type, luciferase-based reporter, dose dependence)
–	O=C1[C@H](Cc2ccc(O)cc2)N2C(=O)CCN(C(=O)NCc3ccccc3)[C@H]2CN1Cc1cccc2ccccc12 [ICG-001]	significantly decreases viability of MASMCs in culture in a dose-response manner	–
significant increase in p53 activity	Oc1nc(-c2ccc(C(F)(F)F)cc2)nc2c1CSCC2 [XAV939]	–	induced p53 activity in control primary vascular SMCs (Adeno-GFP) in a dose dependent manner; also recorded: induced p53 activity in wild type vascular SMCs

Reference: patent US10441687B2, “Wnt/beta-catenin inhibitor-eluting endovascular stent” (ALBERT EINSTEIN COLLEGE OF MEDICINE, INC., priority 2013, dated 2019)
